One data set concerns GP PBMCs. Kind of data set: Cytokine gene expression in guinea pig PBMCs (QuantiGene Plex). Type of data set: cell-based. As to conditions: 1 and 0.2 μg/ml, 24 h, ranking among Ugi compounds. As for the experimental part:
Splenocytes were isolated from naïve BALB/c mice by dissociating spleens with a GentleMACS (Miltenyi) instrument, then filtration through […] screens. For other species, blood was obtained through venipuncture or cardiac puncture into heparinized tubes, then diluted 1:1 with PBS or HBSS and layered onto Ficoll-Histopaque (GE Healthcare) for blood from healthy human volunteers and cynomolgus macaques, Lympholyte-Mammal (Cedarlane Labs) for New Zealand white rabbits, Sprague-Dawley rats, Hartley guinea pigs, cotton rats, and ferrets, followed by standard density centrifugation techniques. PBMCs layers were recovered and cultured in RPMI-1640 + human AB serum (Life Technologies) + Pen Strep + L-Glutamine (human cells) or RPMI-1640 + 10% FBS (Hyclone) + Pen/Strep + L-Glutamine + 0.1% Beta-Mercapto-ethanol (Sigma) (mouse, cyno, rat, cotton rat, guinea pig, rabbit, ferret cells). Purchase of peripheral blood from cynomolgus macaques was from Valley Biosystems (West Sacramento, CA) and was performed in accordance with Standard Operating Procedures and with the approval of the Valley Biosystems Institutional Animal Care and Use Committee (IACUC). […]
PBMCs (human, cynomolgus macaque, guinea pig, ferret, rabbit, rat, and cotton rat) or splenocytes (mouse) were seeded onto 96-well flat bottom plates at 5 x 10^5 cells/well and stimulated with TLR4 agonists at 1 and 0.2 μg/ml for 24 h at 37°C. […] For human, cyno, mouse, and rat, cell-free SNs were analyzed via human, NHP, mouse, and rat MILLIPLEX kits. For GP, ferret, rabbit, and CR, cells were lysed by Millipore lysing buffer and snap frozen at -70 C until ready for analysis by Affymetrix QuantiGene 2.0 Plex kits. […] Signal was detected using a Bioplex 200 instrument (BioRad). […]
Fig 7 Activation of cytokine gene expression by Ugi compounds in GP PBMCs. […] SNs were analyzed via GP Affymetrix QuantiGene Plex assay. Data are expressed as the means of 3 GPs at the 1 μg/ml dose of TLR4 agonist and are representative of 2 studies. […]

Another data set has as its target T1, human TLR4 (Homo sapiens, UniProt O00206+Q9Y6Y9).
T1 construct: expressed in transfected cells; host or cells: HEK293 with stably integrated pNiFty2-SEAP reporter
Kind of data set: Human TLR4 NFκB SEAP reporter gene assay in hTLR4-transfected HEK293 cells. Type of data set: cell-based. As to conditions: NFκB SEAP reporter, hTLR4-transfected HEK293 cells, 20 h; read-out: Human TLR4 pEC50 (converted). As for the experimental part:
HEK293 cells stably transfected with pNiFty2-SEAP reporter plasmid were transiently transfected with either human or mouse TLR4 (pUNO expression vector), in combination with either human or mouse CD14/MD2 (pDUO expression vector). Transient transfectants were seeded in Dulbecco’s Modified Eagle Medium, FCS 10% (v/v), 2 mM l glutamine and non-essential amino acids. Cells were seeded in tissue culture treated clear flat bottom polystyrene 96 well plates (Costar, 3598) at 1e4 cells/well. Concentration-response curves were generated by addition of test compounds and incubation for 20 h at 37°C in an atmosphere of 5% CO2. LPS (E. coli 0111:B4, Ultra-pure, Invivogen) or PHAD (Avanti Polar Lipids) was used as a positive control. The SEAP released was quantified using p nitrophenyl phosphate as a substrate, and the absorbance at 405 nm was measured at 30 second intervals over several minutes using a microplate reader. Some data are recorded as the pEC50, the negative log of the EC50 value. Other data generated from these reporter cell lines were converted to AUC (area under the curve) values by interpolation of fitted cubic spline curve between OD value and log concentration levels. The calculation is performed using MESS package in statistical software R (www.r-project.org/).
Background: In a reporter assay the amount or activity of a reporter protein is the signal.

Data set [1] is described as follows: LogD, octanol/water distribution coefficient. The format is physicochemical. Conditions: pH 7.4; octanol/water distribution coefficient at pH7.4. The source says:
Fig 2 Optimization stages of Ugi products as TLR4 agonists. *Human TLR-4 NFκB SEAP reporter assays; protocol as described in Methods. Data are reported as pEC50, or negative log of the EC50 values. **Clint rh / hm represents intrinsic clearance in presence of rat hepatocytes (μL/min/10^6 cells) and human microsomes (μL/min/mg protein). […] Thus a drug molecule with LogD >4 might be considered to be very lipophilic and therefore more likely to suffer from rapid metabolic turnover, poor solubility and receptor promiscuity; whereas a LogD range of 1–3 is more likely to be associated with optimal physicochemical and drug-like properties. ^††Solubility was measured by dissolution of solid samples in buffer at pH 7.4.

As usually defined, the logD is the decadic logarithm of the distribution of all forms, ionised or not, between an organic phase and buffer at a given pH. The low end stands for a more hydrophilic compound, the high end for a more lipophilic compound.

T1 sequence (O00206 24-839): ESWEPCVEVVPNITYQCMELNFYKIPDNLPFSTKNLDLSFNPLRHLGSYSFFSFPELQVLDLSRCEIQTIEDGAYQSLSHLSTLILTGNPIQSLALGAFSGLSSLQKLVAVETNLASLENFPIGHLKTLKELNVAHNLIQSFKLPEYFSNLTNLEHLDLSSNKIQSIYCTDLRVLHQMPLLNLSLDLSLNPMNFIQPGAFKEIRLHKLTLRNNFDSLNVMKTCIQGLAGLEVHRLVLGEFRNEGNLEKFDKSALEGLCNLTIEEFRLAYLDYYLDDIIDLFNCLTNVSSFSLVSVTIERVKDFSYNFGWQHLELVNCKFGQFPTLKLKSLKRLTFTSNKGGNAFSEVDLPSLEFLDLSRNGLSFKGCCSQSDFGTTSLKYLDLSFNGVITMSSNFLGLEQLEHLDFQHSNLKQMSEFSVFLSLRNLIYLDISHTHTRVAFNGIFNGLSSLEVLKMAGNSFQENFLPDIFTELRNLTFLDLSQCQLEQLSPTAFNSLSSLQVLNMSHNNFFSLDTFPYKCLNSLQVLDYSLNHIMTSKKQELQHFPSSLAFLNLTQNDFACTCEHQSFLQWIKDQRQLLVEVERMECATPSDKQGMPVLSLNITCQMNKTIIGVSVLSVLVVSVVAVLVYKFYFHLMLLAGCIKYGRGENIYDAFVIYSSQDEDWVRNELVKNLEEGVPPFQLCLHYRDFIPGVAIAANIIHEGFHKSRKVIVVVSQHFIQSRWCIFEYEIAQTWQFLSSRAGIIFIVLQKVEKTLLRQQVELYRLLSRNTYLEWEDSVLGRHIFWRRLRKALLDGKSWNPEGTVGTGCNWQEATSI
T1 sequence (Q9Y6Y9 19-160): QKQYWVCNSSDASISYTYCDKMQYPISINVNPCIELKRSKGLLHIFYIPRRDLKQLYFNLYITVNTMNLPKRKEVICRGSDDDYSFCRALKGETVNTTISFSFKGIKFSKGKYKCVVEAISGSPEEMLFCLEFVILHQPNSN

As to `Cc1cc(C)cc(N(C(=O)c2cc(-c3ccccc3)n(-c3ccccc3)n2)C(C(=O)NC2CCCC2)c2ccc(CC(=O)O)cc2)c1` (stereo not shown) [AZ618, 2-(4-(2-(cyclopentylamino)-1-(N-(3,5-dimethylphenyl)-1,5-diphenyl-1H-pyrazole-3-carboxamido)-2-oxoethyl)phenyl)acetic acid], in the data set with GP PBMCs, the “activity in GP PBMCs (cytokine mRNA)” value is “highest activity”. The EC50 on human TLR4 was 20 nM.

On to `CC(C)(C)c1ccc(N(C(=O)c2cc(-c3ccccc3)n(-c3ccccc3)n2)C(C(=O)NC2CCCC2)c2ccc(CC(=O)O)cc2)cc1` (stereo not shown) [AZ902], for which, in the data set on GP PBMCs, the “activity in GP PBMCs (cytokine mRNA)” value is “lowest activity”. For the same compound, the EC50 at human TLR4 is 6.31 nM. Further, the logD in data set [1] is more than 4.5.

In the case of `O=C(O)Cc1ccc(C(C(=O)NC2CCCC2)N(C(=O)c2cc(-c3ccccc3)n(-c3ccccc3)n2)c2ccc3c(c2)CCC3)cc1` (stereo not shown) [AZ617], the “activity in GP PBMCs (cytokine mRNA)” value in the data set on GP PBMCs is recorded as “highest activity”. Also, the EC50 at human TLR4 was 5.01 nM. In data set [1], this compound came in with a logD of 2.85.

For `Cc1ccc(N(C(=O)c2cc(-c3ccccc3)n(-c3ccccc3)n2)C(C(=O)NC2CCCC2)c2ccc(CC(=O)O)cc2)cc1Cl` (stereo not shown) [AZ161], the EC50 at human TLR4 is 20 nM. Also, the logD in data set [1] is 3.2.

(Values after paper PMC5063506, “A Novel Class of Small Molecule Agonists with Preference for Human over Mouse TLR4 Activation” (PLoS ONE, 2016).)
